Key:
[1] = system: normal human keratinocytes; assay: XTT viability test and microscopic observation of the cells; type: cell-based; settings: test concentration 0.5 μg per ml; plate treated in parallel
Protocol: The cells are inoculated in a 96-well culture plate at a rate of 25,000 NHK per well in SFMc. After incubation for 24 h, which is necessary for good adhesion of the cells, the medium is replaced with SFMc diluted to 2% to limit the proliferation of the keratinocytes during the test. The test concentration of ellagic acid is 0.5 microgram per ml of test medium, which is obtained immediately beforehand from a stock solution containing 0.5 mg of ellagic acid per ml of DMSO. The final concentration of DMSO in the test medium is therefore 0.1% V/Vfinal. This concentration is not toxic to the cells. The control consists of SFMc test medium diluted to 2%, to which 0.1% V/V of DMSO has been added. Six cultures are prepared for the test product and six for the control experiment.
A plate treated in parallel is used for the XTT viability test with the XTT kit from Boehringer, reference 146 50 15, in order to measure the mitochondrial dehydrogenase activity of the viable cells.

[2] = system: collagen VII in a culture of normal human keratinocytes; assay: ELISA of collagen VII in supernatants of normal human keratinocyte cultures; type: cell-based; settings: ellagic acid 0.5 μg/ml; for RODC for 72 h of incubation: reduced optical density corrected to 100 μg cellular proteins; for A for 72 h of incubation (activity on the proportion of collagen VII): relative to control culture

O=c1oc2c(O)c(O)cc3c(=O)oc4c(O)c(O)cc1c4c23 [Ellagic acid, 2,3,7,8-tetrahydroxy(1)-benzopyrano-pyrano (5,4,3-cde)(1)benzopyran-5,10-dione]
viability (mitochondrial dehydrogenase activity of viable cells, XTT; microscopic observation) [1]: No significant drop in viability
RODC for 72 h of incubation ([2]; NHK 1106P1 (face-lift)): 1.563 ± 0.240
A for 72 h of incubation (activity on the proportion of collagen VII) ([2]; NHK 1106P1 (face-lift)): +64%
RODC for 72 h of incubation ([2]; NHK 1124P2 (face-lift)): 1.098 ± 0.100
A for 72 h of incubation (activity on the proportion of collagen VII) ([2]; NHK 1124P2 (face-lift)): +42%
proportion of collagen VII present in the culture media ([2]; both strains): large and significant increase

— patent publication US20020098213A1, “USE OF ELLAGIC ACID AND ITS DERIVATIVES IN COSMETICS AND DERMATOLOGY” (priority 1997, published 2002)
